Data from ChEMBL document CHEMBL1201862, “PubChem BioAssay data set” (2004).
Activity calls are given as the source filed them.

What was measured:
[1] = target: Heat shock protein HSP 90-alpha (Homo sapiens, UniProt P07900); format: functional, organism-based
INS1 = test: INS-1E survival protection against cytokine death – cell-based, luminescence, retest, dose response (AID 449756); format: functional; conditions: Rattus norvegicus;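 note: cell death triggered by IL-1 beta plus TNF-alpha plus IFN-gamma mixture; protective hits raise ATP signal compared with cytokine alone wells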
[2] = NIH-3T3 fibroblast cytotoxicity, dose response, cytotoxicity control, cell-based, fluorescence, Alamar Blue, secondary assay (AID 2327); format: functional;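 note: NIH-3T3 mouse fibroblasts cultured with fluconazole at 8 µg/mL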
Protein RecA = target: T1, Protein RecA (Mycobacterium tuberculosis, UniProt P9WHJ3); test: Fluorescence Cell-Free Homogeneous Dose Retest to Identify Inhibitors of RecA-Intein Splicing Activity. [Related pubchem assays (depositor defined):AID2097, AID2223, AID489010, AID492950]; format: functional
T1 sequence (P9WHJ3 whole entry): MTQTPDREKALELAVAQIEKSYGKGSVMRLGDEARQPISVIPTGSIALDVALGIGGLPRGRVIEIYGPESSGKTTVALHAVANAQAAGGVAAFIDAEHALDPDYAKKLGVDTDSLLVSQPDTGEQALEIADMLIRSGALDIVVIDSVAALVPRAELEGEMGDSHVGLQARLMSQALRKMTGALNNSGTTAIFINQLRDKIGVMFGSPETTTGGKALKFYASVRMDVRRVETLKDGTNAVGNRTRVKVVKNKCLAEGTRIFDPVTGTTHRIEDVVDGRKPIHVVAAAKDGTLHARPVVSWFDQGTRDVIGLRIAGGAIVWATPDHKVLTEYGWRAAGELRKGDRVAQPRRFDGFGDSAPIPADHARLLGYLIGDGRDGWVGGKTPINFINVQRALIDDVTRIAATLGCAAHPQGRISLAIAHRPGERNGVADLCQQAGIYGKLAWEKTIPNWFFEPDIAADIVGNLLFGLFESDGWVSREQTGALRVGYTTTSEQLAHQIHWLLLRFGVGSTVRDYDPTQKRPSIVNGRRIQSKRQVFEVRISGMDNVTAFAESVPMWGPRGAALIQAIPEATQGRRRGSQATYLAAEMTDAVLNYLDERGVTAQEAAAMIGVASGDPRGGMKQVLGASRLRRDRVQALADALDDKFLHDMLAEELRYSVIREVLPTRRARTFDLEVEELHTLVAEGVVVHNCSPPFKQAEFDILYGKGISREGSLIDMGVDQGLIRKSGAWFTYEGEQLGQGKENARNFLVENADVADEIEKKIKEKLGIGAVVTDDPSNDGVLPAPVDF

[3] = target: T2, Apoptotic protease-activating factor 1 (Homo sapiens, UniProt O14727); format: functional
T2 sequence (O14727 whole entry): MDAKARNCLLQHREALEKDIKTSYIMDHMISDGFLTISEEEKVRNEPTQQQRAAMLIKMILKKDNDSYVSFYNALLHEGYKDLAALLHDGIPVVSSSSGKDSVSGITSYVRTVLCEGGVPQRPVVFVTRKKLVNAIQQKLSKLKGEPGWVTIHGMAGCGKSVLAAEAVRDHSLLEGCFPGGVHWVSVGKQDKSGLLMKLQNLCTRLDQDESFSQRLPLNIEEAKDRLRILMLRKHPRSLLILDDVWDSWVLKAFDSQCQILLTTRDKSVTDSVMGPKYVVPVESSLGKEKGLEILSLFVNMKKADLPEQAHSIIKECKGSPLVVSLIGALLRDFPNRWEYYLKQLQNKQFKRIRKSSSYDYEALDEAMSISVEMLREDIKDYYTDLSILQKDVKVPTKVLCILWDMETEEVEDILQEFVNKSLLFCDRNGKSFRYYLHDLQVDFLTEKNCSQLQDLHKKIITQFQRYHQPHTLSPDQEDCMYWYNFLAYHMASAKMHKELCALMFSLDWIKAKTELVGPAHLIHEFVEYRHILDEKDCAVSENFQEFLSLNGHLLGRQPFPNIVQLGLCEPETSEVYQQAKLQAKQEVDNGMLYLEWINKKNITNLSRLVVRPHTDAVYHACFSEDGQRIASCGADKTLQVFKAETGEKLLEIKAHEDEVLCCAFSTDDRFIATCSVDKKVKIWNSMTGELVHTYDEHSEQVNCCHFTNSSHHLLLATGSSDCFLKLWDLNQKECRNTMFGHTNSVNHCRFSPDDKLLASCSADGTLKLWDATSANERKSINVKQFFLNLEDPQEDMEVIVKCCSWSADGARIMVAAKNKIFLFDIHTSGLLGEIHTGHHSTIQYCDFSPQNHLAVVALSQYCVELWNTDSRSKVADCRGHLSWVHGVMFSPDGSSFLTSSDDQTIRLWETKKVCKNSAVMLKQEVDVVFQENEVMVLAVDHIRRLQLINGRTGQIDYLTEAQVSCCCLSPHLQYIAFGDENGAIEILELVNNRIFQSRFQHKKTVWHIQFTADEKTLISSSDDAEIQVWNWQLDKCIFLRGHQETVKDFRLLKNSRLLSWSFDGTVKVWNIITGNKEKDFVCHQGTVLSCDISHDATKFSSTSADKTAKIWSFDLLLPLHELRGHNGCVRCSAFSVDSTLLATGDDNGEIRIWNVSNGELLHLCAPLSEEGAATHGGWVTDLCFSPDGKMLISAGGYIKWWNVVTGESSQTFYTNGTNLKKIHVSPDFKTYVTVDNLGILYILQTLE

Row | SMILES | AC50 [1] | AC50 (INS1) | EC50 [2] | EC50 (Protein RecA) | IC50 [3]
1 | CC(C)CC(=O)NC(c1cccs1)c1ccc2cccnc2c1O (configuration not stated) | 3.78 µM (active) | 0.862 µM (active) | 24.3 µM (active) |  | 
2 | CCOC(=O)c1ccc(NC2=CC(=O)C(=O)c3ccccc32)cc1 |  |  |  | 3.24 µM (active) | 4.73 µM (active)
3 | OC(CNCCC1C=Nc2ccccc21)Cn1c2ccc(Cl)cc2c2cc(Cl)ccc21 (configuration not stated) | 8.15 µM (active) | 7.32 µM (active) | 14.3 µM (inconclusive) | 9.52 µM (active) | 
4 | CCCCCCCCCCCCCCCC[N+](C)(C)C | 8.33 µM (active) | 4.84 µM (active) | > 150 µM (inconclusive) | 14.7 µM (active) | 27.5 µM (active)
5 | COc1ccc(C(=O)c2nccc3cc(OC)c(OC)cc23)cc1OC |  |  |  |  | 24.4 µM (active)
6 | Cc1ccccc1-c1cc2c(nn1)-c1ccccc1C2=O |  |  |  | 0.891 µM (active) | 25.5 µM (active)
